In ChEMBL document CHEMBL4819153, “l-Hypaphorine and d-hypaphorine: Specific antiacetylcholinesterase activity in rat brain tissue” (Bioorg Med Chem Lett, 2021):

How the values were obtained:
[1] = test system: HaCaT; assay: Cytotoxicity against human HaCaT cells assessed as reduction in cell viability upto 10000 uM incubated for 24 hrs relative to control; format: cell-based
[2] = molecular target: T1, Acetylcholinesterase (Rattus norvegicus, UniProt P37136); assay: Inhibition of AChE in rat brain Hippocampus; format: tissue-based
T1 sequence (P37136 whole entry): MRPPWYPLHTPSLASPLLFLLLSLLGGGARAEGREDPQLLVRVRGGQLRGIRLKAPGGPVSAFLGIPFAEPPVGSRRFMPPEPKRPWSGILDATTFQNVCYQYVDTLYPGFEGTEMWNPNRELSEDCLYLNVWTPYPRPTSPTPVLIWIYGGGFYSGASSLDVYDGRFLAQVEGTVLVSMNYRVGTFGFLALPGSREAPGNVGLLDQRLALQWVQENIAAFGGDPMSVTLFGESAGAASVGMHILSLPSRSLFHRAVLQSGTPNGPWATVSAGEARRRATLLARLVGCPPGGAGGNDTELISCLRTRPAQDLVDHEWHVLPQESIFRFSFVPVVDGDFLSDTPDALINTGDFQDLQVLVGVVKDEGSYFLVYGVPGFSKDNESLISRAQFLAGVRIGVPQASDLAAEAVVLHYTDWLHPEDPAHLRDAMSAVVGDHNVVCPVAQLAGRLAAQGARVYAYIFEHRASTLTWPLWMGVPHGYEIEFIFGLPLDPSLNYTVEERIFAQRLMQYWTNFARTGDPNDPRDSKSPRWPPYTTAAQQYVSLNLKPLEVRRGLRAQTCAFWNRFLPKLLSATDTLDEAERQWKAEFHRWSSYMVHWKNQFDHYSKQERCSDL

[3] = test system: HaCaT; assay: Cytotoxicity against human HaCaT cells assessed as reduction in cell viability upto 10000 uM incubated for 48 hrs relative to control; format: cell-based
[4] = molecular target: T1, Acetylcholinesterase; assay: Inhibition of AChE in rat brain Cerebellum; format: tissue-based
[5] = Solubility in water; format: physicochemical; settings: buffer
[6] = molecular target: T1, Acetylcholinesterase; assay: Inhibition of AChE in rat brain Striatum; format: tissue-based
[7] = molecular target: T1, Acetylcholinesterase; assay: Inhibition of AChE in rat brain cortex; format: tissue-based
[8] = test system: HaCaT; assay: Cytotoxicity against human HaCaT cells assessed as reduction in cell viability incubated for 24 hrs relative to control; format: cell-based
[9] = test system: HaCaT; assay: Cytotoxicity against human HaCaT cells assessed as reduction in cell viability incubated for 48 hrs relative to control; format: cell-based
[10] = test system: HaCaT; assay: Cytotoxicity against human HaCaT cells assessed as reduction in cell viability at 5000 to 10000 uM incubated for 48 hrs relative to control; format: cell-based; settings: dose 5000-10000 µM
[11] = test system: HaCaT; assay: Cytotoxicity against human HaCaT cells assessed as reduction in cell viability at 10000 uM incubated for 24 hrs relative to control; format: cell-based

| SMILES | Activity [1] | IC50 [2] [µM] | Activity [3] | IC50 [4] [µM] | solubility [5] | IC50 [6] [µM] | IC50 [7] [µM] | Activity [8] [%] | Activity [9] [%] | Activity [10] | Activity [11] |
| --- | --- | --- | --- | --- | --- | --- | --- | --- | --- | --- | --- |
| C[N+](C)(C)[C@@H](Cc1c[nH]c2ccccc12)C(=O)O.[Cl-] | Non-Toxic | > 1000 | Non-Toxic | 18.6 | Soluble | > 1000 | > 1000 | – | – | – | – |
| C[N+](C)(C)[C@H](Cc1c[nH]c2ccccc12)C(=O)O.[Cl-] | Non-Toxic | 0.32 | Non-Toxic | 19.1 | Soluble | 34.6 | 0.24 | – | – | – | – |
| CN(C)/N=N/c1[nH]cnc1C(N)=O [DACARBAZINE] | – | – | – | – | – | – | – | 29.74 | 44.46 | – | – |
| CN(C)C(=O)Oc1cccc([N+](C)(C)C)c1.[Br-] [NEOSTIGMINE BROMIDE] | – | 0.07 | – | 37.2 | – | 3.17 | 0.65 | – | – | Toxic | Toxic |
